Assay results as given in patent US12186332B2, “Methods for overcoming WNT/beta-catenin anti-cancer resistance in leukemia stem cells” (STOWERS INSTITUTE FOR MEDICAL RESEARCH, priority 2019, dated 2025).

What was measured:
[1] = tested on: β-catenin binding of the Cd24a gene locus; assay: ChIP-qPCR in Ctnnb1-3xFlag mouse ES cells; type: cell-based; conditions: 4 hours
Experimental: The Ctnnb1-3×Flag mouse ES cell line was provided by Andrew McMahon (University of Southern California) and routinely passaged and maintained on irradiated MEF feeder in conventional ES cell medium supplemented with […] and […] Hygromycin B. Cells were adapted and expanded to serum free 2i culture for experiments. For serum-free 2i culture, ES cells were cultured without serum in the N2B27 medium: neurobasal medium(Invitrogen 21103-049), DMEM/F12 (Invitrogen 10565-018), 0.5×N2 (Invitrogen 17502-048), 0.5×B27 (Invitrogen 17504044), 1×b-mercaptoethanol(Millipore ES-007-E), 2 mM Lglutamine(Invitrogen 25030081), […] non-essential amino acid(NEAA)(SCT 07600), 0.033% BSA(Invitrogen 15260037), […] CHIRON(Tocris 4423), […] PD03 (SCT72184).
A total of 2×10^7 ES cells were used per ChIP assay. Cells were washed with 1×PBS and crosslinked with 1% paraformaldehyde for 10 min at RT and quenched with 1 ml 2.5M glycine. Cells were washed with cold PBS three times and resuspended in […] lysis buffer (15 mM HEPES at pH 7.5, 140 mM NaCl, 1 mM EDTA, 0.5 mM EGTA, 1% Triton X100, 0.1% sodium deoxycholate, 1% SDS, 0.5% N-lauroylsarcosine). […] ChIP-qPCR was performed with Fast SYBR™ Green Master Mix (Thermo Fisher Scientific 4385612) and analyzed with the Student's t-test.

[2] = tested on: PD-L1, TIM-3 and CD24 on LSCs; assay: FACS of immune checkpoints on LSCs; type: in vivo, mouse; conditions: 3 days post-treatment
Excerpt: Frequency in BM (top) and frequency of the indicated immune checkpoint within the LSC population (bottom) are shown.

[3] = tested on: BM cells isolated from leukemic double mutants (LSCs, HSPCs); assay: In vitro treatment of BM cells from leukemic mice; type: cell-based, mouse; conditions: 11, 33 or 100 nM, 72 hours
Experimental: Doxorubicin, 0105375, and thioguanosine were added to 11, 33 or 100 nM and cultured for 72 hours and analyzed by flow cytometry for LSCs as in FIGS. 1A-1E. Fold change before and after culture for each population is indicated relative to equivalent vehicle control concentrations.
Doxorubicin, 0105375, and thioguanosine were added to 11, 33 or 100 nM and cultured for 72 hours and analyzed by flow cytometry for HSPCs as in FIGS. 1A-1E. Fold change before and after culture for each population is indicated relative to equivalent vehicle control concentrations.
Bone marrow cells from leukemic mice at 8 weeks post-induction were cultured overnight at 5-20×10^4 cells per well in 96-well U-bottom tissue culture plates (Becton, Dickinson and Company; Cat. No. 353077) in HSC expansion media in low O2 conditions as previously described (Perry et al. 2011). Doxorubicin (Sigma; D1515), 0105375 (University of Kansas CMLD compound), or Thioguanosine was mixed with HSC expansion media and added to the cultures to obtain final concentrations of 11, 33, 100 nM. Equivalent amounts of DMSO alone (vehicle control) were added to parallel cultures for comparison. Half-media changes were performed approximately every 24 hours. Cultures were analyzed after 72 hours exposure to the indicated drug.

pS^552-β-catenin = assay: Western analysis of compound-treated TOP and FOP cells; type: cell-based
Experimental: TOP and FOP cells were treated with thioguanosine at EC90, EC50 and EC25 derived from FIG. 2A for 48 hours, washed and flash frozen for Western analysis. EC50 data is shown.
TOP and FOP cells were treated with compound 0105375 at EC90, EC50 and EC25 derived from FIG. 2B for 48 hours, washed and flash frozen for Western analysis. EC50 data is shown.
TOP and FOP cells were treated with doxorubicin at EC90, EC50 and EC25 derived from FIG. 2C for 48 hours, washed and flash frozen for Western analysis. EC50 data is shown.

HEK-TOP cell lines = assay: Cell Titer Glo cytotoxicity profile (CTG); conditions: concentration range as worded in the sentence
Experimental: Activity of compounds was tested against HEK-TOP cells vs. HEK FOP cells for inhibition of luciferase activity. The cytotoxicity profiles of the compounds were also tested using Cell Titer Glo assay (Promega) on HEK-TOP cell lines.

CD8^+ T cells = assay: FACS of peripheral blood CD8+ T cells in leukemic mice; type: in vivo, mouse; conditions: 48 hrs post-treatment
[4] = tested on: Akt-enhanced β-catenin activity (TOP-Luc); assay: HTS TOPFlash/FOPFlash luciferase reporter dose-response; type: cell-based
[5] = particularly low concentrations, 48 hours

Structure (SMILES): COc1cccc2c1C(=O)c1c(O)c3c(c(O)c1C2=O)C[C@@](O)(C(=O)CO)C[C@@H]3O[C@H]1C[C@H](N)[C@H](O)[C@H](C)O1 [DXR, doxorubicin]
- β-catenin binding of the Cd24 promoter region ([1]; high-dose DXR (3 μM)): partially reversed
- β-catenin binding of the Cd24 promoter region ([1]; low-dose DXR (30 nM)): essentially abolished
- LSC populations expressing PD-L1 and CD24 ([2]; [Low]DXR): reduced
- TIM-3+ LSCs ([2]; [Low]DXR): reduced
- LSC populations expressing PD-L1 and CD24 ([2]; clinical-dose DXR): this reduction was reversed
- TIM-3+ LSCs ([2]; clinical-dose DXR): increased substantially
- effect on HSPCs relative to vehicle [3]: lower effect
- effect on LSCs relative to vehicle [3]: significantly reduced
- inhibition of pS552-β-catenin relative to pan β-catenin (HTS candidates) (pS^552-β-catenin): could inhibit pS^552-β-catenin with less effect on pan β-catenin
- effect on β-catenin generally (pS^552-β-catenin; [5]): only minimal effect
- pS552-β-catenin level (pS^552-β-catenin; [5]): inhibited
- toxicity (CTG) (HEK-TOP cell lines): increased toxicity
- CD8+ T cells in peripheral blood (CD8^+ T cells; [Low]DXR): significant increase
- CD8+ T cells in peripheral blood (CD8^+ T cells; clinical-dose DXR): significant reduction
- concentration at which Akt-enhanced β-catenin activity (TOP-Luc) is specifically inhibited (compare to FOP-Luc control) ([4]; HEK-293 TOPFlash vs FOPFlash Akt^Act βcat^Act cells): lower than 1 μM
- specificity (FOP-Luc) at higher concentrations ([4]; higher concentrations (above 1 μM)): reduced specificity
